Experimental findings from patent publication US20170290852A1, “MICELLE FORMULATIONS OF AMPHOTERICIN B” (Wisconsin Alumni Research Foundation, priority 2016, published 2017) are described below.

The structures appear in SMILES notation. Converted amounts (≈) assume the structure as drawn. Bounds are passed on as bounds.

The subject of data set [1] is C. albicans Gu5 (ATCC MYA-574). In words: Minimum inhibitory concentration (MIC). The class given is cell-based. Conditions: for 5-FC the concentration inhibiting ≧50% by absorbance. Here is the method: (§1) To prepare the inoculation, the fungal strains were cultured for approximately 24 hours on Sabouraud dextrose agar (SDA) plates were diluted to a 0.5 McFarland standard (1-5×10^6 CFU/mL) in sterile normal saline and diluted 100-fold in yeast peptone dextrose (YPD). Inoculum was added to serial dilutions of AmB in 96-well plates, following the microplate dilution method. Plates were sealed with Breathe Easier membranes (Sigma Aldrich, St. Louis, Mo.). ATCC 9763 or K1 was incubated at 30° C. or 37° C., respectively, for 18-20 hours. […] SDA was prepared with 1% peptone, 4% glucose, and 1.5% agar in deionized water. YPD media was prepared with 1% yeast extract, 2% peptone, and 2% glucose in deionized water. Autoclaving was used to sterilize media.
(§2) For 5-FC, the concentration necessary to inhibit ≧50% as determined by absorbance is reported.

Data set [2] concerns C. albicans SC5314 (ATCC MYA-2876). In words: Minimum inhibitory concentration (MIC). The class given is cell-based. Conditions: for 5-FC the concentration inhibiting ≧50% by absorbance. Here is the method: as §1, §2
For the next data set, the system named is C. albicans strain K1. In words: Minimum inhibitory concentration (MIC). The class given is cell-based. Conditions: K1 (Example 6); for 5-FC the concentration inhibiting ≧50% by absorbance. Here is the method: as §1, §2
A further data set concerns K1. In words: Neutropenic mouse model of disseminated candidiasis. The class given is in vivo, ICR/Swiss mice. The following applies: 48 hours; 72 mg/kg 5-FC.
The test system of a further data set is bovine red blood cells. The following applies: 5-FC alone, 25-100 μg/ml.

On to `Nc1nc(=O)[nH]cc1F` [5-FC, 5-fluorocytosine], for which the minimal inhibitory concentration (MIC) (in general, the lowest concentration that inhibits growth of the organism) stood at 81 µg/mL (≈ 627 µM) in data set [1], 20 µg/mL (≈ 155 µM) in data set [2] and 64 µg/mL (≈ 496 µM) with C. albicans strain K1. The “fungal burden of the control group relative to treated group” value with K1 was determined as 1.2 times. This molecule also had a hemolytic activity in the data set on bovine red blood cells of less than 0.4%.
